ChEMBL document CHEMBL1146839, “Orally active amino functionalized antimalarial 1,2,4-trioxanes” (Bioorg Med Chem Lett, 2004)
Active and inactive are the calls of the source. No cut-off for these calls is given here.

Legend:
Mus musculus [1] = assay: Mean survival time against Plasmodium yoelii in mice (Mus musculus) which died during 28-day observation period at 96 mg/kg/day orally; format: functional; settings: route oral
[2] = Number of survivals against Plasmodium yoelii in mice (Mus musculus) (out of 5) at 96 mg/kg/day intramuscularly on day 28; format: organism-based; set-up: route intramuscular; settings: in vivo, im
[3] = Number of survivals against Plasmodium yoelii in mice (Mus musculus) (out of 5) at 96 mg/kg/day orally on day 28; format: organism-based; set-up: route oral; settings: in vivo, po
Mus musculus [4] = assay: In vivo antimalarial activity against Plasmodium yoelii in mice (Mus musculus) at 96 mg/kg/day orally on day 4 expressed as percent suppression; format: functional; settings: route oral
Mus musculus [5] = assay: Mean survival time against Plasmodium yoelii in mice (Mus musculus) which died during 28-day observation period at 96 mg/kg/day intramuscularly; format: functional; settings: route intramuscular
Mus musculus [6] = assay: In vivo antimalarial activity against Plasmodium yoelii in mice (Mus musculus) at 96 mg/kg/day intramuscularly on day 4 expressed as percent suppression; format: functional; settings: route intramuscular
Mus musculus [7] = assay: Percent suppression against Plasmodium yoelii in mice (Mus musculus) at 24 mg/kg/day orally on day 4; format: functional; settings: route oral
Mus musculus [8] = assay: Mean survival time against Plasmodium yoelii in mice (Mus musculus) which died during 28-day observation period at 24 mg/kg/day orally; format: functional; settings: route oral
Mus musculus [9] = assay: Percent suppression against Plasmodium yoelii in mice (Mus musculus) at 96 mg/kg/day intramuscularly on day 4; format: functional; settings: route intramuscular
Mus musculus [10] = assay: Mean survival time against Plasmodium yoelii in mice (Mus musculus) which died during 28-day observation period at 48 mg/kg/day orally; format: functional; settings: route oral
[11] = Number of survivals against Plasmodium yoelii in mice (Mus musculus) (out of 5) at 48 mg/kg/day orally on day 28; format: organism-based; set-up: route oral; settings: in vivo, po
Mus musculus [12] = assay: In vivo antimalarial activity against Plasmodium yoelii in mice (Mus musculus) at 48 mg/kg/day orally on day 4 expressed as percent suppression; format: functional; settings: route oral
[13] = Number of survivals against Plasmodium yoelii in mice (Mus musculus) (out of 5) at 24 mg/kg/day orally on day 28; format: organism-based; set-up: route oral; settings: in vivo, po
Mus musculus [14] = assay: In vivo antimalarial activity against Plasmodium yoelii in mice (Mus musculus) at 24 mg/kg/day orally on day 4 expressed as percent suppression; format: functional; settings: route oral
Mus musculus [15] = assay: In vivo antimalarial activity against Plasmodium yoelii in mice (Mus musculus) at 96 mg/kg/day intramuscularly on day 4 expressed as percent suppression; No suppression; format: functional, organism-based

Row | SMILES | MST (Mus musculus [1]) [days] | No. of survivals [2] | No. of survivals [3] | Suppression (Mus musculus [4]) [%] | MST (Mus musculus [5]) [days] | Suppression (Mus musculus [6]) [%] | Suppression (Mus musculus [7]) [%] | MST (Mus musculus [8]) [days] | Suppression (Mus musculus [9]) [%] | MST (Mus musculus [10]) [days] | No. of survivals [11] | Suppression (Mus musculus [12]) [%] | No. of survivals [13] | Suppression (Mus musculus [14]) [%] | Suppression (Mus musculus [15])
1 | C=C(c1ccccc1)C1COC2(CCC(Nc3ccc(OC)cc3)CC2)OO1 (stereo not given) | 12.4 | 0 | 0 | 93 | 10.8 | 63 |  |  |  |  |  |  |  |  | 
2 | C=C(c1ccccc1)C1COC2(CCC(Nc3ccc(NC(C)=O)cc3)CC2)OO1 (stereo not given) | 9.8 | 0 | 0 | 77 | 9 | 98 |  |  |  |  |  |  |  |  | 
3 | C=C(c1ccc(-c2ccccc2)cc1)C1COC2(CCC(Nc3ccccc3)CC2)OO1 (stereo not given) | >28 | 0 | 5 | 100 | 10.7 |  | 98 | 13.4 | 72 | 14.5 | 3 | 100 | 0 |  | 
4 | C=C(c1ccc(-c2ccccc2)cc1)C1COC2(CCC(Nc3ccc(NC(C)=O)cc3)CC2)OO1 (stereo not given) | 8.4 | 0 | 0 | 49 | 11.6 | 90 |  |  |  |  |  |  |  |  | 
5 | C=C(c1ccccc1)C1COC2(CCC(Nc3cccc4ccccc34)CC2)OO1 (stereo not given) | 19.5 | 0 | 0 | 100 | 9.2 | 44 |  |  |  |  |  |  |  |  | 
6 | CCO[C@H]1O[C@@H]2O[C@@]3(C)CC[C@H]4[C@H](C)CC[C@@H]([C@H]1C)[C@@]24OO3 [ARTEMOTIL] |  |  |  |  |  |  |  | 17.75 |  | >28 | 5 | 100 | 1 | 100 | 
7 | CCN(CC)CCCC(C)Nc1ccnc2cc(Cl)ccc12 (stereo not given) [CHLOROQUINE] |  |  |  |  |  |  |  | 14.8 |  | 17.6 | 2 | 100 | 0 | 100 | 
8 | C=C(c1ccccc1)C1COC2(CCC(=O)CC2)OO1 (stereo not given) | 7.2 | 0 | 0 | 7 | 11.6 | 99 |  |  |  |  |  |  |  |  | 
9 | C=C(c1ccc(-c2ccccc2)cc1)C1COC2(CCC(Nc3ccc(OC)cc3)CC2)OO1 (stereo not given) | 11.1 | 0 | 0 | 94 | 8.4 | 57 |  |  |  |  |  |  |  |  | 
10 | C=C(c1ccccc1)C1COC2(CCC(Nc3ccccc3)CC2)OO1 (stereo not given) | 12.2 | 0 | 0 | 95 | 13.4 | 60 |  |  |  |  |  |  |  |  | 
11 | C=C(c1ccc(-c2ccccc2)cc1)C1COC2(CCC(=O)CC2)OO1 (stereo not given) | 10.2 | 1 | 0 | 92 | 17.7 | 100 |  |  |  |  |  |  |  |  | 
12 | C=C(c1ccc(-c2ccccc2)cc1)C1COC2(CCC(Nc3cc(Cl)cc(Cl)c3)CC2)OO1 (stereo not given) | 10.2 | 0 | 0 | 65 | 7 | 46 |  |  |  |  |  |  |  |  | 
13 | C=C(c1ccccc1)C1COC2(CCC(Nc3cc(Cl)cc(Cl)c3)CC2)OO1 (stereo not given) | 16.5 | 0 | 2 | 100 | 12.4 | 62 |  |  |  |  |  |  |  |  | 
14 | C=C(c1ccc(-c2ccccc2)cc1)C1COC2(CCC(Nc3cccc4ccccc34)CC2)OO1 (stereo not given) | 14.8 | 0 | 0 | 100 | 6.6 |  |  |  |  |  |  |  |  |  | inactive
